In patent US10519197B1, “Peptide-based proteasome inhibitors for treating conditions mediated by senescent cells and for treating cancer” (UNITY BIOTECHNOLOGY, INC., priority 2017, dated 2019):

Assays:
Format in all cases: in vivo, mouse
[1] = tested on: 3MR and INK-ATTAC mice exposed to cigarette smoke; test: Cigarette smoke COPD model, oxygen saturation by pulse oximeter; conditions: after two months of cigarette smoke exposure, compared with untreated controls
Method: As a model for chronic obstructive pulmonary disease (COPD), mice were exposed to cigarette smoke. The effect of a senolytic agent on the mice exposed to smoke is assessed by senescent cell clearance, lung function, and histopathology.
The mice used in this study include the 3MR strain, described in US 2017/0027139 A1 and in Demaria et al., Dev Cell. 2014 December 22; 31(6): 722-733. The 3MR mouse has a transgene encoding thymidine kinase that converts the prodrug ganciclovir (GCV) to a compound that is lethal to cells. The enzyme in the transgene is placed under control of the p16 promoter, which causes it to be specifically expressed in senescent cells. Treatment of the mice with GCV eliminates senescent cells.
Other mice used in this study include the INK-ATTAC strain, described in US 2015/0296755 A1 and in Baker et al., Nature 2011 Nov. 2; 479(7372):232-236. The INK-ATTAC mouse has a transgene encoding switchable caspase 8 under control of the p16 promoter. The caspase 8 can be activated by treating the mice with the switch compound AP20187, whereupon the caspase 8 directly induces apoptosis in senescent cells, eliminating them from the mouse.
To conduct the experiment, six-week-old 3MR (n=35) or INK-ATTAC (n=35) mice were chronically exposed to cigarette smoke generated from a Teague TE-10 system, an automatically-controlled cigarette smoking machine that produces a combination of side-stream and mainstream cigarette smoke in a chamber, which is transported to a collecting and mixing chamber where varying amounts of air is mixed with the smoke mixture. The COPD protocol was adapted from the COPD core facility at Johns Hopkins University (Rangasamy et al., 2004, J. Clin. Invest. 114:1248-1259; Yao et al., 2012, J. Clin. Invest. 122:2032-2045).
Mice received a total of 6 hours of cigarette smoke exposure per day, 5 days a week for 6 months. Each lighted cigarette (3R4F research cigarettes containing 10.9 mg of total particulate matter (TPM), 9.4 mg of tar, and 0.726 mg of nicotine, and 11.9 mg carbon monoxide per cigarette [University of Kentucky, Lexington, Ky.]) was puffed for 2 seconds and once every minute for a total of 8 puffs, with the flow rate of 1.05 L/min, to provide a standard puff of 35 cm^3. […] The smoke chamber atmosphere was monitored for total suspended particulates (80-120 mg/m3) and carbon monoxide (350 ppm). […]
After two months of cigarette smoke (CS) exposure, lung function was assessed by monitoring oxygen saturation using the MouseSTAT PhysioSuite™ pulse oximeter (Kent Scientific). […] Mice were monitored for 30 seconds and the average peripheral capillary oxygen saturation (SpO2) measurement over this duration was calculated.

[2] = tested on: LDLR-/- mice fed a HFD; test: Atherosclerosis model (LDLR-/- mice, high fat diet): Sudan IV staining of aortic plaques; conditions: 25 mg/kg intraperitoneally, timepoint 3 (week 12)
Method: (§1) Two groups of LDLR−/− mice (10 weeks) are fed a high fat diet (HFD) (Harlan Teklad TD.88137) having 42% calories from fat, beginning at Week 0 and throughout the study. Two groups of LDLR−/− mice (10 weeks) are fed normal chow (−HFD). From weeks 0-2, one group of HFD mice and −HFD mice are treated with Nutlin-3A (25 mg/kg, intraperitoneally). One treatment cycle is 14 days treatment, 14 days off. Vehicle is administered to one group of HFD mice and one group of −HFD mice. At week 4 (timepoint 1), one group of mice are sacrificed and to assess presence of senescent cells in the plaques. For the some of the remaining mice, Nutlin-3A and vehicle administration is repeated from weeks 4-6. At week 8 (timepoint 2), the mice are sacrificed and to assess presence of senescent cells in the plaques. The remaining mice are treated with Nutlin-3A or vehicle from weeks 8-10. At week 12 (timepoint 3), the mice are sacrificed and to assess the level of plaque and the number of senescent cells in the plaques.
(§2) At the end of timepoint 3, LDLR−/− mice fed a HFD and treated with Nutlin-3A or vehicle (n=3 for all groups) were sacrificed, and aortas were dissected and stained with Sudan IV to detect the presence of lipid. Body composition of the mice was analyzed by MRI, and circulating blood cells were counted by Hemavet™.

[3] = Atherosclerosis model: circulating blood cell counts by Hemavet; conditions: 25 mg/kg intraperitoneally, timepoint 3 (week 12)
Method: as §1, §2

[4] = tested on: C57BL/6J mice with surgery-induced osteoarthritis; test: Osteoarthritis model (ACL surgery): histopathology of joint tissue; conditions: 5.8 μg per operated knee, intra-articular; 4 weeks post-surgery
Method: (§3) The model was implemented as follows. C57BL/6J mice underwent surgery to cut the anterior cruciate ligament of one rear limb to induce osteoarthritis in the joint of that limb. During week 3 and week 4 post-surgery, the mice were treated with 5.8 μg of Nutlin-3A (n=7) per operated knee by intra-articular injection, q.o.d. for 2 weeks. At the end of 4 weeks post-surgery, joints of the mice were monitored for presence of senescent cells, assessed for function, monitored for markers of inflammation, and underwent histological assessment.

[5] = Atherosclerosis model: body composition by MRI; conditions: 25 mg/kg intraperitoneally, timepoint 3 (week 12), mice fed the high fat diet
Method: as §1, §2

[6] = tested on: C57BL/6J mice with surgery-induced osteoarthritis; test: Osteoarthritis model (ACL surgery): weight bearing test; conditions: 5.8 μg per operated knee, intra-articular; 4 weeks post-surgery
Method: as §3
Function of the limbs was assessed 4 weeks post-surgery by a weight bearing test to determine which leg the mice favored. The mice were allowed to acclimate to the chamber on at least three occasions prior to taking measurements. Mice were maneuvered inside the chamber to stand with one hind paw on each scale. The weight that was placed on each hind limb was measured over a three second period. At least three separate measurements were made for each animal at each time point. The results were expressed as the percentage of the weight placed on the operated limb versus the contralateral unoperated limb.

[7] = tested on: p16, IL-6, and MMP13; test: Osteoarthritis model (ACL surgery): qRT-PCR of senescence and SASP markers in operated joints; conditions: 5.8 μg per operated knee, intra-articular, q.o.d. for 2 weeks; 4 weeks post-surgery; mRNA by qRT-PCR
Method: as §3
Two control groups of mice were included in the studies performed: one group comprising C57BL/6J or 3MR mice that had undergone a sham surgery (n=3) (i.e., surgical procedures followed except for cutting the ACL) and intra-articular injections of vehicle parallel to the GCV (ganciclovir) treated group; and one group comprising C57BL/6J or 3MR mice that had undergone an ACL surgery and received intra-articular injections of vehicle (n=5) parallel to the GCV-treated group. RNA from the operated joints of mice from the Nutlin-3A treated mice was analyzed for expression of SASP factors (mmp3, IL-6) and senescence markers (p16). qRT-PCR was performed to detect mRNA levels.

[8] = tested on: MMP3, MMP13, PAI1, p21, IGFBP2, IL-1A, and IL-1B; test: Atherosclerosis model (LDLR-/- mice, high fat diet): RT-PCR of SASP factors and senescent cell markers in aortic arches; conditions: 25 mg/kg intraperitoneally, HFD
Method: as §1, with “At week 8 (timepoint 2), the mice are sacrificed and to assess presence of senescent cells in the plaques. The remaining mice are treated with Nutlin-3A or vehicle from weeks 8-10. At week 12 (timepoint 3), the mice are sacrificed and to assess the level of plaque and the number of senescent cells in the plaques.” left out
At the end of timepoint 1, LDLR−/− mice fed a HFD and treated with Nutlin-3A or vehicle were sacrificed (n=3, all groups), and the aortic arches were dissected for RT-PCR analysis of SASP factors and senescent cell markers. Values were normalized to GAPDH and expressed as fold-change versus age-matched, vehicle-treated LDLR−/− mice on a normal diet.
At the end of timepoint 2, LDLR−/− mice fed a HFD and treated with Nutlin-3A or vehicle (n=3 for all groups) were sacrificed, and aortic arches were dissected for RT-PCR analysis of SASP factors and senescent cell markers. Values were normalized to GAPDH and expressed as fold-change versus age-matched, vehicle-treated LDLR−/− mice on a normal diet.

Question: With CC1(C)CCC(c2ccc(Cl)cc2)=C(CN2CCN(c3ccc(C(=O)NS(=O)(=O)c4ccc(N[C@H](CCN5CCOCC5)CSc5ccccc5)c(S(=O)(=O)C(F)(F)F)c4)cc3)CC2)C1 [ABT-263] as the compound, how does the SpO2 levels [1] read?
Answer: statistically significant increases

Question: With CC[C@H](C(=O)N1CCCC[C@H]1C(=O)O[C@H](CCc1ccc(OC)c(OC)c1)c1cccc(OCC(=O)NCC(CNC(=O)COc2cccc([C@@H](CCc3ccc(OC)c(OC)c3)OC(=O)[C@@H]3CCCCN3C(=O)[C@@H](CC)c3cc(OC)c(OC)c(OC)c3)c2)CN(C)C)c1)c1cc(OC)c(OC)c(OC)c1 [AP2018] as the compound, how does the SpO2 levels [1] read?
Answer: statistically significant increases

Question: With COc1ccc(C2=N[C@@H](c3ccc(Cl)cc3)[C@@H](c3ccc(Cl)cc3)N2C(=O)N2CCNC(=O)C2)c(OC(C)C)c1 [Nutlin-3A] as the compound, how does the “reduction of the surface area covered by plaques in the descending aorta” value [2] read?
Answer: about 45%

Question: And the “platelet and lymphocyte counts versus vehicle treated mice” value [3]?
Answer: equivalent

Question: And the “destruction of the proteoglycan layer (histopathology of joint tissue)” value [4]?
Answer: completely abrogated this effect

Question: What about the “mass and body fat composition” value [5] of the same compound?
Answer: decreased

Question: And the “weight bearing: favoring of the unoperated hind limb over the operated hind limb” value [6]?
Answer: abrogated this effect

Question: And the SpO2 levels [1]?
Answer: statistically significant increases

Question: And the “expression of p16, IL-6, and MMP13 in the tissue” value [7]?
Answer: reduced the expression back to below the level of the controls

Question: And the “expression of SASP factors and senescent cell markers MMP3, MMP13, PAI1, p21, IGFBP2, IL-1A, and IL-1B in aortic arch” value ([8]; after one treatment cycle (timepoint 1, week 4))?
Answer: reduced expression

Question: What about the “expression of SASP factors and senescent cell markers in aortic arch” value ([8]; multiple treatment cycles (timepoint 2, week 8)) of the same compound?
Answer: reduced expression of most markers

Question: Which SpO2 levels [1] does the source give for Nc1nc(O)c2ncn(COC(CO)CO)c2n1 [ganciclovir] here?
Answer: statistically significant increases
